The text below walks through data of patent US11517581B2, “Zika virus protease inhibitors and methods of use thereof” (priority 2017, dated 2022).

“Also recorded” adds a separate entry of the source.

The assay relates to ZIKV. As to the kind of experiment: Dexamethasone-immunosuppressed mouse model of disseminated ZIKV infection. The format is in vivo, BALB/c mice. As to the method: Approval was obtained from the Committee on the Use of Live Animals in Teaching and Research of The University of Hong Kong. […] Phosphate-buffered saline (PBS) was used to dilute the virus stocks to the desired concentration, and inocula were back-titrated to verify the dose given. On the day of virus inoculation, a dose of the virus equivalent to 6×10^6 TCID50 (3.24×10^6 plaque forming units) in […] of PBS was inoculated via the intraperitoneal route into mice under ketamine (100 mg/kg) and xylazine (10 mg/kg) anesthesia. Mice in the negative-control groups were injected with the same volume of PBS. Mice were monitored three times each day for clinical signs of disease and a numerical score was assigned at each observation as previously described (Chan et al., 2016c). Three mice per group were sacrificed at 5 dpi for virological, histological, and immunohistochemistry analyses. The remaining mice were sacrificed at 14 dpi or euthanized when there was ≥20% weight loss or ≥10% weight loss with ≥1 clinical sign. Samples of major organs were collected at necropsy for virological, histological, and immunohistochemical analyzes as we previously described (Chan et al., 2016c. Chan et al., 2017b). Blood samples were also collected for RNA extraction and qRT-PCR analysis.

`CO[C@@H]1[C@@H](OC(N)=O)[C@@H](O)[C@H](Oc2ccc3c(O)c(NC(=O)c4ccc(O)c(CC=C(C)C)c4)c(=O)oc3c2C)OC1(C)C` [Novobiocin] came in with a Survival (100 mg/kg q12 h sc 1-13 dpi, vs 0% untreated control mice, P<0.05) of 100%. The “ZIKV-NS1 antigen expression in organ tissues (immunohistochemical staining)” value (5 dpi) was “minimal; also recorded: rarely detected”. The “Mean viral loads in the blood and the major organ tissues” value (5 dpi and 14 dpi, incl. testis and kidney) was “significantly reduced”. Moreover, the “Weight loss after dexamethasone withdrawal” value (ZIKV-inoculated, 100 mg/kg q12 h sc) is recorded as not above 8%. Further, the “Clinical symptoms after dexamethasone withdrawal” value (ZIKV-inoculated, 100 mg/kg q12 h sc, recovered at 13-14 dpi) is listed as “minimal clinical symptoms”. Besides, the “Inflammatory infiltrates in organ tissues (H&E)” value (after dexamethasone withdrawal, 12 or 14 dpi) was “little inflammatory infiltrate; also recorded: no or mild inflammatory infiltrate, and preserved tissue architecture; also recorded: minimal inflammatory infiltrates”. Besides, the “Reduction of mean viral loads in blood and most major organ tissues vs untreated control mice” value (at both 5 dpi and 14 dpi, qRT-PCR normalized by β-actin) was not below 2 log.
